In patent US11279691B2, “Substituted pyridine and pyrazine compounds as PDE4 inhibitors” (Dart Neuroscience LLC, priority 2013, dated 2022):

Target: T1, PDE4D3 (Homo sapiens, UniProt Q08499)
T1 construct: GST
Type: biochemical
Settings: GST-tagged PDE4D3, 200 nM FAM-cAMP, 11-point dose-response; read-out: PD4d3 pEC50 (converted)

T1 sequence (Q08499 1-673 isoform Q08499-2): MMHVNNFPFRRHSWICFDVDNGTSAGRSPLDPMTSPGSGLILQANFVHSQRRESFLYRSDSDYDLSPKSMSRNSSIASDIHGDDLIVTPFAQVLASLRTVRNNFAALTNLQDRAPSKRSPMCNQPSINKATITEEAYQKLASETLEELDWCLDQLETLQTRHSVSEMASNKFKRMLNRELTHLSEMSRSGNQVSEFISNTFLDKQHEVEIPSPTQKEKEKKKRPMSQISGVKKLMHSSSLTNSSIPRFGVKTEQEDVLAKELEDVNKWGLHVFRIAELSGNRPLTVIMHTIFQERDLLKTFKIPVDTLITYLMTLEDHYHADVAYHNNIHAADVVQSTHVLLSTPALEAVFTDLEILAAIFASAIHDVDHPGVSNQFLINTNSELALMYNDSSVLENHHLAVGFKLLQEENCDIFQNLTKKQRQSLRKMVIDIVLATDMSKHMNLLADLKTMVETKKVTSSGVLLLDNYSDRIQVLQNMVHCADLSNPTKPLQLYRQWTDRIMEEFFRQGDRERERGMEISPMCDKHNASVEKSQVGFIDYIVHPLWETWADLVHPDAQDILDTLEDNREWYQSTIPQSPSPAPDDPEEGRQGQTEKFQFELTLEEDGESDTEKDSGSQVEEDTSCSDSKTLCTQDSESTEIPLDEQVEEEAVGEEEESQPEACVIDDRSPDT

Compound	EC50 [nM]
CCOc1ncc(Cc2cncc(F)c2)cc1-c1ccnc(OC(F)F)c1 [Example 306, 3-[2-(Difluoromethoxy)pyridin-4-yl]-2-ethoxy-5-[(5-fluoropyridin-3-yl)methyl]pyridine]	< 100
COc1ncc(Cn2ccc(C(N)=O)n2)cc1-c1ccnc(C#N)c1 [Example 307, 1-{[5-(2-Cyanopyridin-4-yl)-6-methoxypyridin-3-yl]methyl}-1H-pyrazole-3-carboxamide]	1000 to 10000
COc1ncc(Cn2ccc(C(N)=O)n2)cc1-c1cccc(Cl)c1 [Example 308, 1-{[5-(3-Chlorophenyl)-6-methoxypyridin-3-yl]methyl}-1H-pyrazole-3-carboxamide]	100 to 1000
COc1ncc(Cn2ccc(C(N)=O)n2)cc1-c1ccnc(OC(F)F)c1 [Example 309, 1-({5-[2-(Difluoromethoxy)pyridin-4-yl]-6-methoxypyridin-3-yl}methyl)-1H-pyrazole-3-carboxamide]	< 100
CCOc1ncc(Cn2cnc(C(N)=O)c2)cc1-c1cccc(Cl)c1 [Example 310, 1-{[5-(3-Chlorophenyl)-6-ethoxypyridin-3-yl]methyl}-1H-imidazole-4-carboxamide]	100 to 1000
CCOc1ncc(Cn2cnc(C(N)=O)c2)cc1-c1ccnc(OC(F)F)c1 [Example 311, 1-({5-[2-(Difluoromethoxy)pyridin-4-yl]-6-ethoxypyridin-3-yl}methyl)-1H-imidazole-4-carboxamide]	100 to 1000
CCOc1ncc(Cn2cnc(C(N)=O)c2)nc1-c1cccc(Cl)c1 [Example 312, 1-{[6-(3-Chlorophenyl)-5-ethoxypyrazin-2-yl]methyl}-1H-imidazole-4-carboxamide]	< 100
CCOc1ncc(Cn2ccc(C(N)=O)n2)nc1-c1cccc(Cl)c1 [Example 313, 1-{[6-(3-Chlorophenyl)-5-ethoxypyrazin-2-yl]methyl}-1H-pyrazole-3-carboxamide]	100 to 1000
CCOc1ncc(Cn2cnc(C(N)=O)c2)nc1-c1ccc(F)c(F)c1 [Example 314, 1-{[6-(3,4-Difluorophenyl)-5-ethoxypyrazin-2-yl]methyl}-1H-imidazole-4-carboxamide]	100 to 1000
COc1ncc(Cn2cc(CO)nc2C)cc1-c1ccnc(OC(F)F)c1 [Example 315, [1-({5-[2-(Difluoromethoxy)pyridin-4-yl]-6-methoxypyridin-3-yl}methyl)-2-methyl-1H-imidazol-4-yl]methanol]	100 to 1000
COc1ncc(Cn2nc(CO)cc2C)cc1-c1ccnc(OC(F)F)c1 [Example 316, [1-({5-[2-(Difluoromethoxy)pyridin-4-yl]-6-methoxypyridin-3-yl}methyl)-5-methyl-1H-pyrazol-3-yl]methanol]	100 to 1000
CCOc1ncc(Cn2nc(N)cc2C)cc1-c1cccc(Cl)c1 [Example 317, 1-{[5-(3-Chlorophenyl)-6-ethoxypyridin-3-yl]methyl}-5-methyl-1H-pyrazol-3-amine]	100 to 1000
COc1ncc(Cc2cnc(OCC(C)(C)O)nc2)cc1-c1cccc(Cl)c1 [Example 318, 1-[(5-{[5-(3-Chlorophenyl)-6-methoxypyridin-3-yl]methyl}pyrimidin-2-yl)oxy]-2-methylpropan-2-ol]	1000 to 10000
CCOc1ncc(Cn2c(CO)cnc2C)cc1-c1cccc(Cl)c1 [Example 319, (1-{[5-(3-Chlorophenyl)-6-ethoxypyridin-3-yl]methyl}-2-methyl-1H-imidazol-5-yl)methanol]	100 to 1000
CCOc1ncc(Cn2nc(C)cc2CO)cc1-c1cccc(Cl)c1 [Example 320, (1-{[5-(3-Chlorophenyl)-6-ethoxypyridin-3-yl]methyl}-3-methyl-1H-pyrazol-5-yl)methanol]	> 10000
Cc1nc(CO)cn1Cc1cnc(OC(F)F)c(-c2cccc(Cl)c2)c1 [Example 321, (1-{[5-(3-Chlorophenyl)-6-(difluoromethoxy)pyridin-3-yl]methyl}-2-methyl-1H-imidazol-4-yl)methanol]	100 to 1000
COc1ncc(Cn2cc(CO)nc2C)nc1-c1cccc(Cl)c1 [Example 322, (1-{[6-(3-Chlorophenyl)-5-methoxypyrazin-2-yl]methyl}-2-methyl-1H-imidazol-4-yl)methanol]	100 to 1000
CCOc1ncc(Cn2nc(CO)cc2C)nc1-c1cccc(Cl)c1 [Example 323, (1-{[6-(3-Chlorophenyl)-5-ethoxypyrazin-2-yl]methyl}-5-methyl-1H-pyrazol-3-yl)methanol]	1000 to 10000
CCOc1ncc(Cn2cc(CO)nc2C)nc1-c1cccc(Cl)c1 [Example 324, (1-{[6-(3-Chlorophenyl)-5-ethoxypyrazin-2-yl]methyl}-2-methyl-1H-imidazol-4-yl)methanol]	100 to 1000
CCOc1ncc(Cn2nc(CO)cc2C)cc1-c1cccc(Cl)c1 [Example 325, (1-{[5-(3-Chlorophenyl)-6-ethoxypyridin-3-yl]methyl}-5-methyl-1H-pyrazol-3-yl)methanol]	< 100
CCOc1ncc(Cn2cc(CO)nc2C)cc1-c1cccc(Cl)c1 [Example 326, (1-{[5-(3-Chlorophenyl)-6-ethoxypyridin-3-yl]methyl}-2-methyl-1H-imidazol-4-yl)methanol]	< 100

Compound	EC50 [nM]
CCOc1ncc(Cn2cnc(CO)n2)cc1-c1cccc(OC)c1 [Example 327, (1-{[6-Ethoxy-5-(3-methoxyphenyl)pyridin-3-yl]methyl}-1H-1,2,4-triazol-3-yl)methanol]	< 100
CCOc1ncc(Cn2cnc(CO)n2)cc1-c1ccc(Cl)cc1 [Example 328, (1-{[5-(4-Chlorophenyl)-6-ethoxypyridin-3-yl]methyl}-1H-1,2,4-triazol-3-yl)methanol]	100 to 1000
CCOc1ncc(Cn2cnc(CO)n2)cc1-c1cncc(Cl)c1 [Example 329, (1-{[5-(5-Chloropyridin-3-yl)-6-ethoxypyridin-3-yl]methyl}-1H-1,2,4-triazol-3-yl)methanol]	1000 to 10000
CCOc1ncc(Cn2cnc(CO)n2)cc1-c1ccc(Cl)c(Cl)c1 [Example 330, (1-{[5-(3,4-Dichlorophenyl)-6-ethoxypyridin-3-yl]methyl}-1H-1,2,4-triazol-3-yl)methanol]	100 to 1000
CCOc1ncc(Cn2cnc(CO)n2)cc1-c1ccc(F)c(C)c1 [Example 331, (1-{[6-Ethoxy-5-(4-fluoro-3-methylphenyl)pyridin-3-yl]methyl}-1H-1,2,4-triazol-3-yl)methanol]	100 to 1000
CCOc1ncc(Cn2cnc(CO)n2)cc1-c1cccc(C(F)(F)F)c1 [Example 332, [1-({6-Ethoxy-5-[3-(trifluoromethyl)phenyl]pyridin-3-yl}methyl)-1H-1,2,4-triazol-3-yl]methanol]	1000 to 10000
CCOc1ncc(Cn2cnc(CO)n2)cc1-c1cccc(OC(F)(F)F)c1 [Example 333, [1-({6-Ethoxy-5-[3-(trifluoromethoxy)phenyl]pyridin-3-yl}methyl)-1H-1,2,4-triazol-3-yl]methanol]	100 to 1000
CCOc1cccc(-c2cc(Cn3cnc(CO)n3)cnc2OCC)c1 [Example 334, (1-{[6-Ethoxy-5-(3-ethoxyphenyl)pyridin-3-yl]methyl}-1H-1,2,4-triazol-3-yl)methanol]	100 to 1000
CCOc1ncc(Cn2cnc(CO)n2)cc1-c1cccc(N(C)C)c1 [Example 335, [1-({5-[3-(Dimethylamino)phenyl]-6-ethoxypyridin-3-yl}methyl)-1H-1,2,4-triazol-3-yl]methanol]	1000 to 10000
COc1ncc(Cn2cnc(CO)n2)cc1-c1cccc(Cl)c1 [Example 336, (1-{[5-(3-Chlorophenyl)-6-methoxypyridin-3-yl]methyl}-1H-1,2,4-triazol-3-yl)methanol]	< 100
CCOc1ncc(Cn2cnc(CO)n2)cc1-c1ccc(F)c(Cl)c1 [Example 337, (1-{[5-(3-Chloro-4-fluorophenyl)-6-ethoxypyridin-3-yl]methyl}-1H-1,2,4-triazol-3-yl)methanol]	< 100
CCOc1ncc(Cn2cnc(CO)n2)cc1-c1cc(F)cc(F)c1 [Example 338, (1-{[5-(3,5-Difluorophenyl)-6-ethoxypyridin-3-yl]methyl}-1H-1,2,4-triazol-3-yl)methanol]	100 to 1000
CCOc1ncc(Cn2cnc(CO)n2)cc1-c1ccnc(C(F)(F)F)c1 [Example 339, [1-({6-Ethoxy-5-[2-(trifluoromethyl)pyridin-4-yl]pyridin-3-yl}methyl)-1H-1,2,4-triazol-3-yl]methanol]	1000 to 10000
CCOc1ncc(Cn2cnc(CO)n2)cc1-c1ccc(F)c(F)c1 [Example 340, (1-{[5-(3,4-Difluorophenyl)-6-ethoxypyridin-3-yl]methyl}-1H-1,2,4-triazol-3-yl)methanol]	< 100
CCOc1ncc(Cn2cnc(CO)n2)cc1-c1cccc(F)c1 [Example 341, (1-{[6-Ethoxy-5-(3-fluorophenyl)pyridin-3-yl]methyl}-1H-1,2,4-triazol-3-yl)methanol]	100 to 1000
CCOc1ncc(Cn2cnc(CO)n2)cc1-c1ccc(F)cc1 [Example 342, (1-{[6-Ethoxy-5-(4-fluorophenyl)pyridin-3-yl]methyl}-1H-1,2,4-triazol-3-yl)methanol]	100 to 1000
COc1cc(-c2cc(Cn3cc(CO)nc3C)cnc2OC)ccc1F [Example 343, (1-{[5-(4-Fluoro-3-methoxyphenyl)-6-methoxypyridin-3-yl]methyl}-2-methyl-1H-imidazol-4-yl)methanol]	1000 to 10000
COc1ncc(Cn2cc(CO)nc2C)cc1-c1ccc(F)cc1 [Example 344, (1-{[5-(4-Fluorophenyl)-6-methoxypyridin-3-yl]methyl}-2-methyl-1H-imidazol-4-yl)methanol]	100 to 1000
COc1ncc(Cn2cc(CO)nc2C)cc1-c1ccc(F)c(F)c1 [Example 345, (1-{[5-(3,4-Difluorophenyl)-6-methoxypyridin-3-yl]methyl}-2-methyl-1H-imidazol-4-yl)methanol]	100 to 1000
COc1ncc(Cn2cc(CO)nc2C)cc1-c1cccc(Cl)c1 [Example 346, (1-{[5-(3-Chlorophenyl)-6-methoxypyridin-3-yl]methyl}-2-methyl-1H-imidazol-4-yl)methanol]	100 to 1000
COc1ncc(Cc2cnc(N)nc2)cc1-c1ccnc(C#N)c1 [Example 347, 4-{5-[(2-Aminopyrimidin-5-yl)methyl]-2-methoxypyridin-3-yl}pyridine-2-carbonitrile]	100 to 1000
